Measurements from patent EP4725957A1, “GROUP OF CYCLIC ALKALINE LIPOPEPTIDE COMPOUNDS, AND PREPARATION METHOD THEREFOR AND USE THEREOF” (Institute of Medicinal Biotechnology, Chinese Academy of …, priority 2023, dated 2024).
≈ marks a conversion by molar mass, not a printed value. Like-named read-outs stand apart in the source and are kept apart here. Bridge positions count the residues as written; N and C are the ends. Square brackets hold non-standard residues; d marks the D form. Peptide text beside a SMILES is read from it. * marks the point of attachment. Heptanoyl(6-Me) = CC(C)CCCCC(=O)*; dDap = NC[C@@H](N)C(=O)O; Dab = NCC[C@H](N)C(=O)O; Dap = NC[C@H](N)C(=O)O

What was measured:
[1] = test system: Acinetobacter baumannii ABA19-1; format: cell-based
Outline: (§1)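 Broth microdilution MIC per CLSI in MH broth, compounds 2-fold diluted to final 64–0.03 mg/L. Inoculum (2-4) × 10^5 CFU/mL final, from 0.5 McFarland suspensions of 18-24 h colonies. Plates sealed and incubated 35-37°C for 16-20 h.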

[2] = test system: Acinetobacter baumannii NCTC 13304 (OXA-27); format: cell-based
Outline: as §1

[3] = test system: Escherichia coli ATCC BAA-2340 (KPC); format: cell-based
Outline: as §1

[4] = test system: Escherichia coli ATCC BAA-2523; format: cell-based
Outline: as §1

[5] = test system: Klebsiella pneumoniae ATCC BAA-1705 (KPC); format: cell-based
Outline: as §1

[6] = test system: Klebsiella pneumoniae KPN+19-15; format: cell-based
Outline: as §1

[7] = test system: Pseudomonas aeruginosa ATCC 27853; format: cell-based
Outline: as §1

[8] = test system: Pseudomonas aeruginosa PAE19-3; format: cell-based
Outline: as §1

[9] = test system: Pseudomonas aeruginosa ATCC27853; test: In vivo antibacterial (protection) test in infected mice; conditions: infected ICR mice, 7 days observation
From the text: Pseudomonas aeruginosa ATCC27853 was selected for the determination of in vivo antibacterial activity.
One day before infection, the test bacteria were inoculated onto the corresponding nutrient agar plates and cultured overnight. On the day of infection, single colonies grown on the plates were picked and suspended in sterile normal saline, and the suspension was mixed thoroughly to obtain the original bacterial solution. The bacterial solution was then adjusted to the required concentration with 5% dried yeast powder and prepared freshly prior to use.
Healthy ICR mice were randomly divided into groups, with 5 mice per group, half male and half female. Bacterial solutions of different dilutions were aspirated and injected intraperitoneally into mice at a volume of 0.5 mL per 20 g of body weight. The mortality of mice was recorded within 7 days after infection. The minimum bacterial dose causing 100% mortality in mice was defined as the minimum lethal dose (MLD), which was used as the infection dose for the in vivo protection test.
Drug administration was performed via tail vein injection at 2 h, 8 h, 24 h, and 30 h after infection, with a total of 4 administrations, and the administration volume was 20 mL/kg. For the preparation of drug solutions, Compound 7, together with the control drugs polymyxin B and meropenem, were dissolved in normal saline to the required concentrations for tail vein injection, and all solutions were prepared freshly prior to use.
In the preliminary test, the drug dose concentrations that caused 100% mortality and no mortality in mice after infection with the tested bacteria were determined. Based on this dose range, 4-5 dose groups were established, with a dose ratio of 1:0.5 to 1:0.8 between adjacent groups.
Mice were randomly grouped according to body weight, with 8 mice per group (half male and half female). Each mouse was intraperitoneally infected with the test bacterial solution at a volume of 0.5 mL per 20 g of body weight, followed by tail vein injection at 2 h, 8 h, 24 h, and 30 h after infection. Mice in the blank control group were not infected with bacterial solution but were only given an equal volume of vehicle at an administration volume of 20 mL/kg. The mortality of mice was observed and recorded for 7 consecutive days.
The minimum lethal bacterial concentration of Pseudomonas aeruginosa ATCC27853 for intraperitoneal infection in mice was 4.2 × 10^2 CFU/mL, which was used as the infection dose in the formal test.
Mice in the infection control group were intraperitoneally inoculated with Pseudomonas aeruginosa ATCC27853 bacterial solution at the MLD concentration ([…]). Infection symptoms began to appear 3-4 hours after inoculation, and all 8 animals died within 48 hours (8/8), with a mortality rate of 100%.

[10] = Nephrotoxicity assay: in vitro cytotoxicity of HK-2 cells by CCK-8 assay; format: cell-based; conditions: human, HK-2 cells (human renal), 72 h incubation with drug-containing medium
Outline: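 HK-2 human renal cells in RPMI-1640 with 10% FBS were exposed to compounds at final 12.5–500 µg/mL for 72 h, then CCK-8 for 3 h and OD450 read. Viability was normalised to drug-free wells; IC50 came from logarithmic regression over three repeats, with polymyxin B as positive drug.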

[11] = Acute toxicity test in healthy mice, single tail vein injection; format: in vivo; conditions: mouse, in vivo, iv; ICR mice, single tail vein injection, Bliss method
Method: (§2) Healthy ICR mice aged 5-6 weeks were selected, with 5-10 mice in each group, and administered via a single tail vein injection at an administration volume of 20 mL/kg. In the preliminary test, the drug dose concentrations that caused 100% mortality and no mortality in mice after a single intravenous injection were determined. Based on this dose range, 4-5 dose groups were set up, with a dose ratio of 1:0.5 to 1:0.8 between adjacent groups. The mortality of animals within 7 days after administration was recorded. According to the mortality rate of experimental animals in each group, the median lethal dose (LD50) of the test samples, i.e., the dose causing 50% mortality of the tested animals, was calculated by the Bliss method.

[12] = test system: Healthy ICR mice; test: as above; format: in vivo; conditions: within 7 days
Method: as §2

[13] = Acinetobacter baumannii ABA19-1
[14] = Acinetobacter baumannii NCTC 13304 (OXA-27)
[15] = Escherichia coli ATCC BAA-2340 (KPC)
[16] = Klebsiella pneumoniae ATCC BAA-1705 (KPC)
[17] = Klebsiella pneumoniae KPN 19-15
[18] = Pseudomonas aeruginosa ATCC27853

Molecule	MIC [1, 13]	MIC [2, 14]	MIC [3, 15]	MIC ([4]; Escherichia coli ATCC BAA-2523)	MIC [5, 16]	MIC [6, 17]	MIC [7, 18]	MIC ([8]; Pseudomonas aeruginosa PAE19-3)	IC50 at 72 h [10]	further results
Polymyxin B [reference compound]	0.25 µg/mL	0.06 µg/mL	0.03 µg/mL	0.03 µg/mL	0.125 µg/mL	0.125 µg/mL	0.25 µg/mL	0.25 µg/mL		mortality rate ([9]; 0.7 mg/kg tail vein twice daily for 2 days): 100%; mortality rate ([9]; 1.0 mg/kg tail vein twice daily for 2 days): 100%; mortality rate ([9]; 1.4 mg/kg tail vein twice daily for 2 days): 87.5%; mortality rate ([9]; 2 mg/kg tail vein twice daily for 2 days): 62.5%
CC(C)CCCCC(=O)N[C@@H](CCN)C(=O)N[C@H](C(=O)N[C@H](CN)C(=O)N[C@H]1CCNC(=O)[C@H]([C@@H](C)O)NC(=O)[C@H](CCN)NC(=O)[C@H](CCN)NC(=O)[C@H]([C@@H](C)O)NC(=O)[C@@H](Cc2ccccc2)NC(=O)[C@H](CCN)NC1=O)[C@@H](C)O [Compound 2, 6-methylheptanoyl-Dab-Thr-D-Dap-ring(4-10)[Dab-Dab-D-Phe-Thr-Dab-Dab-Thr]] ({Heptanoyl(6-Me)}-[Dab]T[dDap][Dab][Dab][dF]T[Dab][Dab]T; lactam 4-C)	≤0.03 µg/mL	≤0.03 µg/mL	≤0.03 µg/mL	≤0.03 µg/mL	≤0.03 µg/mL	≤0.03 µg/mL	≤0.03 µg/mL	0.125 µg/mL (≈ 0.107 µM)	> 500 µg/mL	LD50 at 168 h [11]: 22 mg/kg; mortality rate ([12]; single tail vein injection 15.36 mg/kg): 0%; mortality rate ([12]; single tail vein injection 19.2 mg/kg): 25%; mortality rate ([12]; single tail vein injection 24 mg/kg): 62.5%; mortality rate ([12]; single tail vein injection 30 mg/kg): 100%
CC(C)CCCCC(=O)N[C@@H](CN)C(=O)N[C@H](C(=O)N[C@H](CO)C(=O)N[C@H]1CCNC(=O)[C@H]([C@@H](C)O)NC(=O)[C@H](CCN)NC(=O)[C@H](CCN)NC(=O)[C@H]([C@@H](C)O)NC(=O)[C@@H](Cc2ccccc2)NC(=O)[C@H](CCN)NC1=O)[C@@H](C)O [Compound 52, 6-methylheptanoyl-Dap-Thr-D-Ser-ring(4-10)[Dab-Dab-D-Phe-Thr-Dab-Dab-Thr]] ({Heptanoyl(6-Me)}-[Dap]T[dS][Dab][Dab][dF]T[Dab][Dab]T; lactam 4-C)									> 500 µg/mL	MIC ([1]; ABA19-1): 0.25 µg/mL (≈ 0.217 µM); MIC ([2]; NCTC 13304): 0.25 µg/mL (≈ 0.217 µM); MIC ([3]; ATCC BAA-2340): ≤0.03 µg/mL; MIC ([4]; ATCC BAA-2523): ≤0.03 µg/mL; MIC ([5]; ATCC BAA-1705): 0.25 µg/mL (≈ 0.217 µM); MIC ([6]; KPN+19-15): 0.5 µg/mL (≈ 0.435 µM); MIC ([7]; ATCC 27853): 64 µg/mL (≈ 55.6 µM); MIC ([8]; PAE19-3): 4 µg/mL (≈ 3.48 µM)
